Results taken from patent publication US20150210755A1, “ANTI-POLY-N-ACETYL GLUCOSAMINE (PNAG) MONOCLONAL ANTIBODY AND USES THEREOF FOR THE PREVENTION OR TREATMENT OF PNAG EXPRESSING BACTERIAL INFECTION” (SANOFI, priority 2012, published 2015).

Tested on: methicillin sensitive S. aureus (strain MN8)
Test: Murine lethal septicemia model in immuno-competent mice
Format: in vivo
Details: Vancomycin 30 mg/kg
Experimental: Differences in viable bacterial counts between control and drug-treated groups were analyzed by 1-way ANOVA followed by Dunnett's adjustment for multiplicity. For lethal septicemia, differences in survival between control and drug-treated groups were performed using a Log Rank test followed by a Bonferroni-Holm's adjustment for multiplicity

Compound: CN[C@H](CC(C)C)C(=O)N[C@H]1C(=O)N[C@@H](CC(N)=O)C(=O)N[C@H]2C(=O)N[C@H]3C(=O)N[C@H](C(=O)N[C@H](C(=O)O)c4cc(O)cc(O)c4-c4cc3ccc4O)[C@H](O)c3ccc(c(Cl)c3)Oc3cc2cc(c3O[C@@H]2O[C@H](CO)[C@@H](O)[C@H](O)[C@H]2O[C@H]2C[C@](C)(N)[C@H](O)[C@H](C)O2)Oc2ccc(cc2Cl)[C@H]1O [Vancomycin]
- % Survival (96 h post-infection): 100%
